According to PMC6102311 (Scientific Reports, 2018):

Key:
[1] = tested on: Ralstonia solanacearum; settings: extracted from Chinese agarwood; cited from earlier work
[2] = tested on: Staphylococcus aureus; parameters: method as in PMID 26927047; settings: extracted from Chinese agarwood; cited from earlier work
[3] = tested on: Epstein-Barr virus-early antigen (EBV-EA) activation in Raji cells by TPA; assay: Inhibitory effects on induction of EBV-EA activation by TPA in Raji cells; type: cell-based
From the text: (§1) We finally carried out in vitro functional analysis of the purified valerianol against tumor promoter activity, since there were no reports on its physiological functions. As such a screening study for anti-tumor promoters, valerianol and other several sesquiterpenes, β-eudesmol, elemol, α-selinene, and γ-amorphene, were examined for their inhibitory effects on induction of Epstein-Barr virus-early antigen (EBV-EA) activation in Raji cells by 12-O-tetradecanoylphorbol-13-acetate (TPA)[42].
(§2) This assay was carried out by the method described.

[4] = Viability of Raji cells in the EBV-EA activation assay; type: cell-based; settings: human, Raji cells; concentration 1000 mol ratio to TPA (32 pmol/ml); value in parentheses; read-out: viability percentage of Raji cells
From the text: as §1, §2

[5] = tested on: Raji cells; assay: as above; type: cell-based; settings: concentration 1000 mol ratio to TPA (32 pmol/ml); value in parentheses
From the text: as §1, §2

[6] = concentration 10 mol ratio to TPA (32 pmol/ml)
[7] = concentration 100 mol ratio to TPA (32 pmol/ml)
[8] = concentration 500 mol ratio to TPA (32 pmol/ml)
[9] = concentration 1000 mol ratio to TPA (32 pmol/ml)

Structure (SMILES) | antibacterial activity against Ralstonia solanacearum (in words) [1] | antibacterial activity against Staphylococcus aureus (in words) [2] | inhibitory activity on induction of EBV-EA activation by TPA (in words) [3] | EBV-EA activation, percentage relative to the positive control value (100%) [3, 6] | EBV-EA activation, percentage relative to the positive control value (100%) [3, 7] | EBV-EA activation, percentage relative to the positive control value (100%) [3, 8] | EBV-EA activation, percentage relative to the positive control value (100%) [3, 9] | viability at 32 nmol/ml [4] | viability percentage of Raji cells [5]
C[C@@H]1CCC=C2CC[C@@H](C(C)(C)O)C[C@]21C (relative stereo) [valerianol] | exhibited antibacterial activities | exhibited antibacterial activities | strongest inhibitory activity among the examined sesquiterpenes | 95.6 ± 0.6% | 70.0 ± 2.5% | 46.5 ± 1.5% | 2.1% | 60% | 
C=CC1(C)CCC(C(C)(C)O)CC1C(=C)C (stereo not drawn) [elemol] |  |  |  | 100 ± 0.5% | 73.0 ± 2.4% | 52.6 ± 1.3% | 5.8% | 70% | 
C=C(C)[C@@H]1CC[C@@]2(C)CCC=C(C)[C@@H]2C1 [α-selinene] |  |  |  |  | 74.4 ± 2.7% | 54.2 ± 1.5% | 7.3% |  | 60%
C=C1CCC[C@]2(C)CC[C@@H](C(C)(C)O)C[C@@H]12 [β-eudesmol] |  |  |  | 97.0 ± 0.5% | 71.1 ± 2.2% | 50.4 ± 1.6% | 3.6% | 60% | 
C=C1CC[C@@H](C(C)C)[C@H]2C=C(C)CC[C@@H]12 [γ-amorphene] |  |  |  | 100 ± 0.4% | 76.1 ± 2.5% | 55.6 ± 1.7% | 8.1% |  | 60%
